Data published in patent US20110288082A1, “METHODS AND COMPOSITIONS FOR INHIBITION OF THE TRANSITIONAL ENDOPLASMIC RETICULUM ATPASE” (priority 2010, published 2011).

Columns and labels:
[1] = target: p97 (Homo sapiens, UniProt P55072); experiment: p97 ATPase assay (Kinase Glo Plus; biomol green for compounds that interfere with luciferase); format: biochemical; conditions: purified p97, ATP, 60 min room temperature; mean +/- standard error
Method in brief: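 Purified p97 in 50 mM Tris pH 7.4, 20 mM MgCl2, 1 mM EDTA, 0.5 mM TCEP, preincubated 10 min with compound (0–30 μM, triplicate), then ATP 60 min at room temperature. Remaining ATP read by Kinase Glo Plus luminescence, or biomol green at 630 nm for luciferase-interfering compounds; % activity versus DMSO and no-enzyme controls, mean ± SE.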

[2] = system: p97-dependent Ub^G76V-GFP degradation in HeLa cells; experiment: Ub^G76V-GFP degradation (turn-over) assay; format: cell-based, human; conditions: Homo sapiens, HeLa, read-out: IC50 (μM) Ub^G76V-GFP turn over, Ub^G76V-GFP-expressing HeLa cells; degradation rate constant k from 90 to 180 min; mean +/- standard error
Method in brief: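 HeLa cells expressing Ub^G76V-GFP were imaged, and mean GFP intensity per cell area was taken over 300-500 cells, background-subtracted and normalized to DMSO-treated basal intensity. The degradation rate constant k with compound is expressed as percent of the DMSO control k.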

Sequence of p97 (P55072 2-806 limits assumed): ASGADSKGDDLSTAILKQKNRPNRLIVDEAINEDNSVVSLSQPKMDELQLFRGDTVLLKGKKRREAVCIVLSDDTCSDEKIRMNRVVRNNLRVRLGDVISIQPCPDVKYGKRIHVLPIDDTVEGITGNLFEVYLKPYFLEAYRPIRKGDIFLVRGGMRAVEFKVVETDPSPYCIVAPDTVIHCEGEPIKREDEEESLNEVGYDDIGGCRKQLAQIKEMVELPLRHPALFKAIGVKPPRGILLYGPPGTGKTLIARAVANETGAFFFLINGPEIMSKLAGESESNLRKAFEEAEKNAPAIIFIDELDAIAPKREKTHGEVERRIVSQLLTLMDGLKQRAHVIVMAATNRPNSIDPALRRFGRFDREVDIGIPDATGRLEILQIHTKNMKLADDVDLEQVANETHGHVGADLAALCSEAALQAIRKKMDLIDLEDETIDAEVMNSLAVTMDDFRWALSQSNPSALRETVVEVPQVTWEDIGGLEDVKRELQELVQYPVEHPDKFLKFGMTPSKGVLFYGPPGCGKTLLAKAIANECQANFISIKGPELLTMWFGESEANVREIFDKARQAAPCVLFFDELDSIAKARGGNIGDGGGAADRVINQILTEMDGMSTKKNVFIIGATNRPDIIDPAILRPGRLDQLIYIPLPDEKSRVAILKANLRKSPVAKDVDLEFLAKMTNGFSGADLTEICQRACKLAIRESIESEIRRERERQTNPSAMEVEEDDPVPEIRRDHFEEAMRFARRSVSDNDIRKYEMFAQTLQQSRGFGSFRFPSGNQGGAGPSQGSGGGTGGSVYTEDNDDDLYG

Structure (SMILES)	IC50 [1] [µM]	IC50 [2] [µM]
Fc1ccccc1Nc1nc(NCc2ccccc2)c2ccccc2n1 [II-9]	0.85 ± 0.17	10 ± 2
Cc1cccc(CNc2nc(Nc3cccc(Cl)c3)nc3ccccc23)c1 [III-11]	2.3 ± 0.6	9.7 ± 2.7
COc1cccc2c(NCc3ccccn3)nc(N3CCOc4ccccc43)nc12 [XII-7]	19 ± 5	15 ± 4
